Laboratory results taken from PMC6664820, “Novel natural and synthetic inhibitors of solute carriers SGLT1 and SGLT2” (Pharmacology Research & Perspectives, 2019).
Where a name gives a salt, the structure may show the parent alone.

Assays:
CHO‐hSGLT1/2 cells = test: Cytotoxicity assay (ToxiLight, adenylate kinase leakage into CHO‐SGLT1/2 inhibition assay media); design: CYTOTOXICITY / CY[…], mean / CYTOTOXICITY (% of vehicle control) Mean / CYTOTOXICITY, mean / CY[…] (% of vehicle control) Mean: dose or concentration left out as unconfirmed; details: for CY[…] (% of vehicle control) Mean / CYTOTOXICITY (% of vehicle control) Mean / CY[…] 50 mM: mean; for CY[…] 50 mM: at 50 mM (so in the source);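 on all read-outs here: bioluminescent read-out of adenylate kinase released from lysed cells into the medium, given relative to DMSO vehicle control defined as 0%, higher meaning more cytolysis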
hSGLT2 = target: T1, hSGLT2 (Homo sapiens, UniProt P31639); test: SGLT2 inhibition assay for validation of screening hits and similar compounds (1‐NBD‐glucose uptake, CHO‐hSGLT2 cells); type: cell-based; design: activity: dose or concentration left out as unconfirmed; details: for activity: compound, normalized 1-NBD-glucose uptake, CHO-hSGLT2 cells; for activity / remaining activity at 5 µM / remaining activity at 50 µM: mean; for SGLT2/SGLT1 ACTIVITY RATIO 5 uM Mean: ratio of normalized SGLT2 to SGLT1 activity at 5 uM; for remaining activity at 5 µM / remaining activity at 50 µM: 0.5 h, concentration not given, read-out: NORMALIZED SGLT2 ACTIVITY (%); for inhibition at 50 µM: mean inhibition with 50 μmol/L inhibitor
T1 sequence (P31639 1-672): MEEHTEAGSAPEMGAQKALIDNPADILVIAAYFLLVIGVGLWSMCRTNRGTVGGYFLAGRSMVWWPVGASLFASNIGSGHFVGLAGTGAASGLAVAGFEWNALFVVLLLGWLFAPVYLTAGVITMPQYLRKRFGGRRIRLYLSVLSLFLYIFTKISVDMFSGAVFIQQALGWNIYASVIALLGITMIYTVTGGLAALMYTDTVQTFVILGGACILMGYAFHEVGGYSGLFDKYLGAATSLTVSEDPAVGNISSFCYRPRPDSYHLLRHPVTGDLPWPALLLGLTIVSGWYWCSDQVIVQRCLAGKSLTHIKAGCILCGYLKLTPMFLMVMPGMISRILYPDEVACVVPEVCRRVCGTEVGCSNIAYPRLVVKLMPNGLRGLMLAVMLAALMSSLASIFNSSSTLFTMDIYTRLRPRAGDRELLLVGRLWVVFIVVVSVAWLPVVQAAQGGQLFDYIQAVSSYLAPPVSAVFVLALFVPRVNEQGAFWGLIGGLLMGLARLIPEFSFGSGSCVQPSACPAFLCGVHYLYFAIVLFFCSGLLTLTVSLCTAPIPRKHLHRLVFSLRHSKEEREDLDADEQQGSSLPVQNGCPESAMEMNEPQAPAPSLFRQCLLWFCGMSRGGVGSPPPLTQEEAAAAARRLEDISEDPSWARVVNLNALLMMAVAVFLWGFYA

SGLT1 = target: T2, SGLT1 (Homo sapiens, UniProt P13866); test: SGLT1 inhibition assay for validation of screening hits and similar compounds (1‐NBD‐glucose uptake, CHO‐hSGLT1 cells); type: cell-based; design: activity: dose or concentration left out as unconfirmed; details: for remaining activity at 5 µM / remaining activity at 50 µM: 0.5 h, concentration not given, read-out: NORMALIZED SGLT1 ACTIVITY (%); for remaining activity at 5 µM / remaining activity at 50 µM / activity: mean; for SGLT1/2 inhibition stated in words: SGLT1 and/or SGLT2, discussion statements; for inhibition at 50 µM: mean inhibition with 50 μmol/L inhibitor, read-out: SGLT1 inhibition; for activity: compound, normalized 1-NBD-glucose uptake, CHO-hSGLT1 cells
T2 sequence (P13866 1-664): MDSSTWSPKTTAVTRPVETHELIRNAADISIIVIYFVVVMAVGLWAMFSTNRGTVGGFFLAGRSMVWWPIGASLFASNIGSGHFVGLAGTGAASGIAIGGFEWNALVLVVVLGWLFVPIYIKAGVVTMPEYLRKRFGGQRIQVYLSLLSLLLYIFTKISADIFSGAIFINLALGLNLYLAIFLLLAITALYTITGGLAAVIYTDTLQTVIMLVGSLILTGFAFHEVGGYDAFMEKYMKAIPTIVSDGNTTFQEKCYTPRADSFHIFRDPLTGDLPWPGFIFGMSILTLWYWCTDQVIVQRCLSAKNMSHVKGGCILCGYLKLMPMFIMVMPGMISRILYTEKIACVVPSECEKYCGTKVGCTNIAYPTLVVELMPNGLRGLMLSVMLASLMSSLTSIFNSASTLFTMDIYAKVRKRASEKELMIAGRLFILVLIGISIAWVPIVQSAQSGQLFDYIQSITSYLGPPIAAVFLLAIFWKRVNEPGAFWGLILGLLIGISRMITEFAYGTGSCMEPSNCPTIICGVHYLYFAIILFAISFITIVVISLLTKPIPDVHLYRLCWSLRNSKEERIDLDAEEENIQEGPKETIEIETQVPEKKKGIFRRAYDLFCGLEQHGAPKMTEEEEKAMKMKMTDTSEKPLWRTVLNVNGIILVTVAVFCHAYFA

[1] = ToxiLight, adenylate kinase leakage
[2] = ratio of normalized SGLT2 to SGLT1 activity

| SMILES | remaining activity at 5 µM (SGLT1) | remaining activity at 50 µM (SGLT1) | remaining activity at 5 µM (hSGLT2) | remaining activity at 50 µM (hSGLT2) | also measured |
| --- | --- | --- | --- | --- | --- |
| CC1(C)C(=O)C=C[C@@]2(C)C1=C(O)C(=O)[C@]1(C)[C@@H]2CC[C@@]2(C)[C@H](c3ccoc3)C[C@H]3O[C@]321 [Cedrelone] | – | – | – | – | CYTOTOXICITY, mean (CHO‐hSGLT1/2 cells; [1]): -26; SGLT2/SGLT1 ACTIVITY RATIO, first concentration (hSGLT2; [2]): 1.2; SGLT2/SGLT1 ACTIVITY RATIO, second concentration (hSGLT2; [2]): 1.1 |
| CC(C)COCC(CN(Cc1ccccc1)c1ccccc1)N1CCCC1 (stereo not drawn) [Bepridil HCl] | – | – | – | – | CY[…] (% of vehicle control) Mean (CHO‐hSGLT1/2 cells): 3.67 % of vehicle control; activity (hSGLT2): 65%; SGLT2/SGLT1 ACTIVITY RATIO 5 uM Mean (hSGLT2): 1.1 |
| CC=C(C)C(=O)O[C@H]1c2c(ccc3ccc(=O)oc23)OC(C)(C)[C@H]1OC(=O)C(C)=CC [Praeruptorin B - JR MediChem] | – | – | – | – | CYTOTOXICITY (% of vehicle control) Mean (CHO‐hSGLT1/2 cells): -19 % of vehicle control; SGLT2/SGLT1 ACTIVITY RATIO 5 uM Mean (hSGLT2): 0.9 |
| Cc1ccccc1C(OCCN(C)C)c1ccccc1 (stereo not drawn) [Orphenadrine HCl] | – | – | – | – | CYTOTOXICITY (% of vehicle control) Mean (CHO‐hSGLT1/2 cells): 9 % of vehicle control |
| O=C1C[C@@H](c2ccc(O[C@@H]3O[C@H](CO)[C@@H](O)[C@H](O)[C@H]3O)cc2)Oc2cc(O)ccc21 [Liquiritin] | – | – | – | – | CYTOTOXICITY (% of vehicle control) Mean (CHO‐hSGLT1/2 cells): -10 % of vehicle control; activity (hSGLT2): 101%; SGLT2/SGLT1 ACTIVITY RATIO 5 uM Mean (hSGLT2): 1.0 |
| CC(CN(C)C)CN1c2ccccc2CCc2ccccc21 (stereo not drawn) [Trimipramine maleate] | – | – | – | – | CY[…] (% of vehicle control) Mean (CHO‐hSGLT1/2 cells): -9 % of vehicle control; activity (hSGLT2): 87%; SGLT2/SGLT1 ACTIVITY RATIO 5 uM Mean (hSGLT2): 1.0 |
| CN[C@H]1CC[C@@H](c2ccc(Cl)c(Cl)c2)c2ccccc21 [Sertraline HCl] | – | – | – | – | CY[…], mean (CHO‐hSGLT1/2 cells; [1]): -21 |
| CCCCN1CCCCC1C(=O)Nc1c(C)cc(C)cc1C (stereo not drawn) | 80% | 44% | 73% | 50% | – |
| CCCCN1CCCC[C@H]1C(=O)Nc1c(C)cccc1C [levobupivacaine, reference compound] | 74% | 41% | 73% | 46% | SGLT1/2 inhibition stated in words (SGLT1): novel SGLT1/2 inhibitors |
| CN(C)CCN(Cc1cccs1)c1ccccn1 [Methapyrilene HCl] | – | – | – | – | CY[…] 50 mM (CHO‐hSGLT1/2 cells): -16 |
| Cc1nc(-c2cccs2)cc([C@H]2CN3CC[C@H]2C[C@@H]3CO)n1 | 120% | 115% | 110% | 103% | – |
| Clc1ccc(C(OCCN2CCCCC2)c2ccccc2)cc1 (stereo not drawn) [Cloperastine, cloperastine, reference compound] | – | – | – | – | IC50 (SGLT1; 1‐NBD‐glucose uptake, CHO‐hSGLT1, mean of n biological replicates, or individual measurements where n=2, read-out: SGLT1‐IC50 Mean): 9 µM; SGLT1/2 inhibition stated in words (SGLT1): novel SGLT1/2 inhibitors; inhibition at 50 µM (SGLT1): 72%; IC50 (hSGLT2; 1‐NBD‐glucose uptake, CHO‐hSGLT2, mean of n biological replicates, or individual measurements where n=2, read-out: SGLT2‐IC50 Mean): 9 µM |
| Oc1c(Br)cc(Br)c2cccnc12 [Broxyquinoline] | 110% | 69% | 100% | 90% | – |
| Cc1cccc(C)c1NC(=O)CC12CCCN1CCC2 [Pilsicainide] | 94% | 89% | 90% | 78% | – |
| CC1(C)Oc2ccc3ccc(=O)oc3c2C[C@H]1O [(+)-Lomatin] | – | – | – | – | activity (SGLT1): 124%; activity (hSGLT2): 115%; SGLT2/SGLT1 ACTIVITY RATIO 5 uM Mean (hSGLT2): 0.9 |
| COc1cc2oc(=O)ccc2cc1C[C@@H](O)C(C)(C)O [Peucedanol] | – | – | – | – | activity (SGLT1): 100%; activity (hSGLT2): 95% |
| COc1cc(O)c2c(=O)c(-c3ccc(OC4OC(CO)C(O)C(O)C4O)cc3)coc2c1 (stereo not drawn) [Prunetin‐4‐p‐galactoside] | – | – | – | – | SGLT2/SGLT1‐50μmol/L (ratio of SGLT2 to SGLT1 activities with 50 μmol/L inhibitor) (SGLT1): 2.3; inhibition at 50 µM (SGLT1): 62%; inhibition at 50 µM (hSGLT2): 12% |
| OC1(c2ccccc2)CCNC2CCCCC21 (stereo not drawn) [4-Phenyldecahydro-4-quinolinol] | 98% | 97% | 94% | 81% | – |
| CCN(CC)CCOC(=O)C1(c2ccccc2)CCCC1 [Caramiphen, reference compound] | – | – | – | – | SGLT2/SGLT1‐50μmol/L (ratio of SGLT2 to SGLT1 activities with 50 μmol/L inhibitor) (SGLT1): 0.6; inhibition at 50 µM (SGLT1): 33%; inhibition at 50 µM (hSGLT2): 58% |
| c1ccc(C23CCN(CC2)CC3)cc1 [4-Phenylquinuclidine] | 96% | 72% | 81% | 60% | – |
| Oc1c(I)cc(Cl)c2cccnc12 [Clioquinol, 5-Chloro-7-iodo-8-quinolinol] | 107% | 84% | 107% | 92% | – |
| c1coc(-c2nnc([C@H]3CCN(C4CCCCC4)C3)o2)c1 | 122% | 98% | 98% | 89% | – |
| CN1CCC(C#N)(c2ccccc2)CC1 | 109% | 105% | 105% | 102% | – |
| CN1CCC[C@@H]1CCO[C@](C)(c1ccccc1)c1ccc(Cl)cc1 [Clemastine fumarate] | – | – | – | – | CY[…] 50 mM (CHO‐hSGLT1/2 cells): 2.45 |
| CN1CCc2cc3c(cc2C2OC(O)c4c(ccc5c4OCO5)C21)OCO3 (stereo not drawn) [(Iso)rheagenine] | – | – | – | – | activity (SGLT1): 114%; activity (hSGLT2): 97%; SGLT2/SGLT1 ACTIVITY RATIO 5 uM Mean (hSGLT2): 0.857 |
| CC[C@H]1CN2CC[C@H]1C[C@H]2[C@H](O)c1ccnc2ccc(OC)cc12 [Dihydroquinine] | 99% | 63% | 94% | 58% | – |
| CCN(CC)CC(=O)Nc1c(C)cccc1C [Lidocaine] | 90% | 82% | 90% | 77% | – |
| Oc1c(I)cc(I)c2cccnc12 | 109% | 106% | 107% | 107% | – |
| Fc1ccccc1CN1CC[C@H](c2nnc(-c3ccco3)o2)C1 | 117% | 117% | 100% | 94% | – |
